Results taken from publication PMC5920098, “Identification of the allosteric P2X7 receptor antagonist [^11C]SMW139 as a PET tracer of microglial activation” (Scientific Reports, 2018).

Tests used:
hP2X7R = molecular target: T1, hP2X7R (Homo sapiens, UniProt Q99572); assay: PET imaging in rats locally overexpressing hP2X7R in right striatum; assay type: in vivo, rat; details: PET
T1 construct: 3xFLAG (3flag); expressed in transfected cells; host or cells: rat striatum (female Wistar rats), transduced in vivo with the AAV vector rAAV_3flag-hP2X7R
T1 sequence (Q99572 1-595): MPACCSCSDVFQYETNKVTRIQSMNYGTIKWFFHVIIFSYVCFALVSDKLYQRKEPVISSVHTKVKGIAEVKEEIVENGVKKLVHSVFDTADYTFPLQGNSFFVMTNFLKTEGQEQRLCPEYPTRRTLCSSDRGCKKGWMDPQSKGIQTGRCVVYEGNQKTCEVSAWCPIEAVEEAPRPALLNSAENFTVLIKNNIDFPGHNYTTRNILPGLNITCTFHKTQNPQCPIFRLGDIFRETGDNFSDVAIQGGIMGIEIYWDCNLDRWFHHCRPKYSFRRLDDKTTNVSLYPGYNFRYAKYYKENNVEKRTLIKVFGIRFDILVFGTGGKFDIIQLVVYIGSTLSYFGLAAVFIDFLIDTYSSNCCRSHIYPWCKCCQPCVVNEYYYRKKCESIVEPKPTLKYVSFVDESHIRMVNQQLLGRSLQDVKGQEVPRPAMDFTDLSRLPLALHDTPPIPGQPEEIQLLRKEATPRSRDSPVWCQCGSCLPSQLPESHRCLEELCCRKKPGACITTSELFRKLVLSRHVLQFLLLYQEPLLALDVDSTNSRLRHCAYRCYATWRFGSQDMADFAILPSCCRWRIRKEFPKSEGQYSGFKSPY
Experimental: Uptake of [^11C]SMW139 was 1.5-fold higher in the right striatum compared with the contralateral striatum at 4–15 min p.i. (n = 3; Fig. 6A,B, and Supplementary Figure S5, 5 weeks after vector injection). […] (2.85 ± 0.69 vs. 2.30 ± 0.36 in contralateral striatum) throughout the remainder of the scanning time.
Female rats were injected with the hP2X7R expressing vector in the right striatum, and eGFP expressing vector in the left striatum, which is described in detail in the Supplementary Information. […] To confirm stable expression of hP2X7R during the time period in which PET scanning studies were conducted, autoradiography experiments were performed both prior to and following PET experiments. In a dedicated small animal PET scanner (nanoPET, Mediso Ltd.), 60 min dynamic PET scans were acquired immediately after intravenous administration of 16–20 MBq of [^11C]SMW139. […] 45 min prior to tracer injection. After data reconstruction (details in Supplementary Information), images were analysed using the freely available AMIDE software (version 0.9.2; http://amide.sourceforge.net). ROIs were drawn around ipsi- and contralateral striata. Results are expressed as standardised uptake values (SUVs) and error bars indicate standard deviation.
Stereotactic injection of viral vector […]
to a 10 µL Hamilton syringe. […]
dorsoventral -0.64 cm relative to bregma. […]
minutes before removing it slowly.
Rats were sacrificed for in
Dynamic PET imaging was performed using dedicated small animal NanoPET/CT and NanoPET/MR scanners (Mediso Ltd., Budapest, Hungary) which are equipped with identical PET components. […]
anaesthetised with 4% and 2% isoflurane in oxygen (1 L·min-1) for induction and maintenance, respectively. Rats were positioned on the scanner bed and their respiratory rate was monitored during the entire scan, and anaesthesia was adjusted whenever required. Dynamic PET scans were acquired immediately after intravenous (i.v.) administration of 16-20 MBq of [11C]SMW139 via the tail vein. For […]
hydroxypropyl)-β-cyclodextrin in water for injection 45 min prior to tracer injection. PET scans were acquired in list mode and rebinned into the following frame sequence: 4 × 5, 4 x 10, 2 x 30, 3x 60, 2 x 300, 1 x 600, 1 x 900 and 1 x 1200 s. Reconstruction was performed using a fully 3-dimensional reconstruction algorithm (Tera-TomoTM, Mediso Ltd.) with 4 iterations and 6 subsets, and an isotropic 0.4 mm voxel dimension. Images were analysed using the freely available AMIDE software (version 0.9.2; http://amide.sourceforge.net). 3D ellipsoid ROIs (dimensions x = 3.4 mm, y = 3.6 mm, z = 2.9 […]
mm) were drawn within ipsi- and contralateral striata. Results are expressed as standardised uptake values (SUVs) and error bars indicate standard deviation. SUV were calculated as follows, with cimg in MBq/mL, injected dose in MBq and bodyweight in kg:
An unpaired two-tailed t-test was used for statistical analysis of PET data, which was performed using […]
allowed to recover for 1 week after scanning. After 1 week of recovery following the final scan (12 weeks after stereotactic vector injection) animals were sacrificed, and brains were excised and stored […]
Extended single microdose toxicity study
A single microdose toxicity study according to EMEA guideline EMA/CPMP/ICH/286/1995 (December 2009) was performed in healthy Wistar rats at a 1000 times higher dose than the maximal dose […]
minimum specific activity of 18.5 GBq·µmol-1). Animals were allowed to acclimatise for 10 days, group-housed and in an enriched environment with food and water available ad libitum, and with a 12-hour light-dark cycle in a temperature controlled room.

[1] = LogDoct,7.4 by shake-flask method (1-octanol / 0.2 M phosphate buffer pH 7.4); assay type: physicochemical; details: mean ± SD, read-out: LogDoct,7.4 (n = 3)
Experimental: The LogDoct,7.4 of analogues [^11C]1–3 and [^11C]SMW139 ([^11C]4) was determined using the shake-flask method (partitioning between 1-octanol and 0.2 M phosphate buffer (pH 7.4)). Determined LogDoct,7.4 values (Table 1) show the same trend as LogD values reported by Wilkinson et al.[10].
LogDoct,7.4 of [^11C]1–3 and [^11C]SMW139 was determined by the shake-flask method as described in the Supplementary Information.
Analytical HPLC chromatogram of [11C]SMW139 formulation (Platinum C18, MeCN/H2O/TFA 45:55:0.1, 1 […]
Determination of LogDoct,7.4
The distribution of radiolabelled compound between 1-octanol and 0.2 M phosphate buffer (pH = 7.4) was measured at room temperature. Briefly, 1 mL of a 20 MBq·mL-1 solution of radiolabelled compound in 0.2 M phosphate buffer (pH = 7.4) was mixed with 1 mL of 1-octanol for 1 min using a vortex mixer. After a settling period of 30 min, three samples of 100 μL were taken from both layers.
All samples were counted for radioactivity in a Wallac Universal Gammacounter 1282 (PerkinElmer, Waltham, MA, USA). The LogDoct,7.4 value was calculated according to LogDoct,7.4 = 10Log(Aoct/Abuffer), where Aoct and Abuffer represent average radioactivity counts of the three 1-octanol and the three […]
(1 picture or pasted object on this page, not shown here)

Structure (SMILES): [11CH3]Oc1ccc(Cl)c(C(=O)NCC23CC4(F)CC(F)(CC(F)(C4)C2)C3)c1 [[^11C]SMW139]
- Time of peak of ipsi- to contralateral striatum ratio after tracer injection (hP2X7R): ≤ 15 min
- Uptake in right (hP2X7R) striatum compared with contralateral striatum (hP2X7R; 4–15 min p.i., n = 3, 5 weeks after vector injection): 1.5 fold
- Uptake in rAAV_3flag-hP2X7R striatum after pre-treatment with JNJ-47965567 (hP2X7R; 2 min p.i., JNJ-47965567 30 mg·kg^−1 s.c. 45 min prior to tracer, n = 3, 11 weeks after vector injection): 2.40 ± 0.22 SUV
- Uptake in contralateral striatum (hP2X7R; 2 min p.i., baseline): 2.30 ± 0.36 SUV
- Uptake in rAAV_3flag-hP2X7R striatum (hP2X7R; 2 min p.i., baseline): 2.85 ± 0.69 SUV
- logD [1]: 2.7 ± 0.01
